Experimental data taken from publication PMC11920646 (Frontiers in Pharmacology, 2025).
Where “and” joins values, the source holds several entries; their conditions need not be identical. Equal values may be shown once.

Legend:
human MR = target: T1, human MR (Homo sapiens, UniProt P08235); assay: MR reporter gene (transactivation) assay, CHO-Gal4/MR; format: cell-based
T1 construct: host or cells: CHO (DSMZ ACC-110), CHO-Gal4/MR
T1 sequence (P08235 726-964 limits assumed): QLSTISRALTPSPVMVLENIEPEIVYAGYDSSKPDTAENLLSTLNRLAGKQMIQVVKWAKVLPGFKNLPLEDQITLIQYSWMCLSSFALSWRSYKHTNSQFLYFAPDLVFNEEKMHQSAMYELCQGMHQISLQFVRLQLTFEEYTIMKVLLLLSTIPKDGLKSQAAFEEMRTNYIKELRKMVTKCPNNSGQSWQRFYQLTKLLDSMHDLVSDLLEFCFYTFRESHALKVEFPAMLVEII
Description: (§1) To create the CHO-Gal4/GR, CHO-Gal4/PR, and CHO-Gal4/MR reporter cell lines, first CHO cells were stably transfected with a GAL4-UAS-luciferase reporter construct. Then, the LBD of the GR, PR, or MR (GR Gene ID: 2908, PR Gene ID: 5241, MR Gene ID: 4306, respectively) was cloned into pIRES2-EGFP-GAL4 containing the DBD of GAL4 from pFA-AT2, and then co-transfected into the luciferase-reporter construct-containing CHO cells. These reporter cell lines express the respective nuclear hormone receptor LBD-DBD fusion proteins that control luciferase expression of a GAL4-upstream activation sequence (UAS)-luciferase reporter construct, allowing for detection of ligand- or compound-induced transactivation at the GR, PR, or MR by measuring luciferase activity.
(§2) Cryo-preserved CHO-Gal4/GR, CHO-Gal4/PR, and CHO-Gal4/MR cells were plated in medium at 7,500 cells/well in 384-well assay plates (25 μL/well), and incubated for 24 h. […] Following a 4-h incubation, cells were lysed and luminescence measured using the EMCCD camera FLIPR®Tetra (Molecular Devices, Silicon Valley, CA, United States).
(§3) Transactivation (i.e., gene activation) was expressed as a percentage of the reference agonist activity (Supplementary Material), using Genedata Screener® v15.0.5 software (Basel, Switzerland).
(§4) Transactivation was calculated according to this equation: […]

[1] = system: TNF-α–induced IL-6 release from primary fibroblast-like synoviocytes; assay: Inhibition of TNF-α–induced IL-6 release by primary FLS from rheumatoid arthritis patients; format: cell-based, human; conditions: for IL-6 concentration: replicate wells 1-3
Experimental: In this assay, conducted by BioIVT (Hertfordshire, United Kingdom), primary FLS were obtained from three donors with rheumatoid arthritis and seeded at passage 4 in FGM™-2 fibroblast growth medium (Lonza) in 96-well plates at a density of […], and incubated overnight in standard conditions. […] Negative controls were TNF-α alone and culture medium alone, and vehicle control was DMSO (0.1%). IL-6 was measured in collected supernatant using an enzyme-linked immunosorbent assay (ELISA, R&D Systems Minneapolis, MN, United States) according to the manufacturer’s instructions.
% inhibition= compound -maxmin- max ×100

human PR = target: T2, human PR (Homo sapiens, UniProt P06401); assay: PR reporter gene (transactivation) assay, CHO-Gal4/PR; format: cell-based; conditions: up to 10 µM
T2 construct: host or cells: CHO (DSMZ ACC-110), CHO-Gal4/PR
T2 sequence (P06401 679-913 limits assumed): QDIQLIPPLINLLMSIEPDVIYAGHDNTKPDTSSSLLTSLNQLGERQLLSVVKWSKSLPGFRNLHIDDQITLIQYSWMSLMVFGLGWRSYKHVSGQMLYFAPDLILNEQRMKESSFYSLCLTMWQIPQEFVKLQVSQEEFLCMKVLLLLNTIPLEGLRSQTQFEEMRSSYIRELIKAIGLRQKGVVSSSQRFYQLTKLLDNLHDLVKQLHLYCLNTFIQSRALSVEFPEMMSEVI
Description: as §1, §2, §3, §4

[2] = system: tyrosine aminotransferase (TAT) activity in HepG2 cells; assay: Induction of TAT enzyme activity in HepG2 cells; format: cell-based, human; conditions: for EC50: 24 h; for Efficacy, induction of TAT enzyme activity: relative to dexamethasone, GRM-01 maximum at 10 µM
Experimental: TAT is a key enzyme in gluconeogenesis under the control of glucocorticoids and their interaction with the GR ([Panin and Usynin, 2008]), where induction of TAT expression is mediated through GR transactivation.
HepG2 cells were seeded at 20,000 cells/well in an Eagles’ minimal essential medium (EMEM)-based cell culture medium (Supplementary Material) in 96-well plates and incubated for 24 h in standard conditions. […] Medium was removed, cells washed with 50 μL of phosphate buffered saline (PBS) solution and lysis buffer added (45 µL/well) for a 20-min incubation in agitation at 1,200 rpm at room temperature. Detection buffer (150 µL/well) was added for a 2-h incubation after which the reaction was stopped, followed by a 30-min incubation, all at 37°C. This reaction solution was transferred to an absorbance detection plate (5 µL/well) to measure TAT expression (Envision plate reader, PerkinElmer).
The HepG2 cell culture medium was comprised of 500 mL of Eagles’ minimal essential medium (EMEM) without L-glutamine, 5 mL of 100X penicillin/streptomycin, 5 mL of Ultraglutamine I Supplement 200 mM, 5 mL of non-essential amino acids (NEAA) 100X (all from Lonza), and 50 mL of FBS (Sigma).
% activation= compound -minmax- min ×100
where min = TAT expression in medium only, max = TAT expression after stimulation with dexamethasone

C[C@]12C=CC(=O)C=C1CC[C@@H]1[C@@H]2[C@@H](O)C[C@@]2(C)[C@H]1CC[C@]2(O)C(=O)CO [Prednisolone]
EC50 (human MR; 4-h incubation): 11.8 ± 3.2 nM
MR transactivation, mean activation (human MR; % of reference agonist fludrocortisone): 66.4 ± 4.7%
IL-6 concentration ([1]; Donor 1, compound −5 log M): 260.7 pg/mL and 224.6 pg/mL and 206.6 pg/mL
IL-6 concentration ([1]; Donor 1, compound −6 log M): 269.7 pg/mL and 215.6 pg/mL and 206.6 pg/mL
IL-6 concentration ([1]; Donor 1, compound −7 log M): 292.3 pg/mL and 274.3 pg/mL and 238.1 pg/mL
IL-6 concentration ([1]; Donor 1, compound −8 log M): 616.3 pg/mL and 483.3 pg/mL and 446.8 pg/mL
IL-6 concentration ([1]; Donor 1, compound −9 log M): 988.4 pg/mL and 736.4 pg/mL and 685.5 pg/mL
IL-6 concentration ([1]; Donor 1, compound −10 log M): 880.6 pg/mL and 778.2 pg/mL and 796.8 pg/mL
IL-6 concentration ([1]; Donor 1, compound −11 log M): 964.9 pg/mL and 801.4 pg/mL and 731.8 pg/mL
IL-6 concentration ([1]; Donor 1, compound −12 log M): 946.2 pg/mL and 768.9 pg/mL and 708.6 pg/mL
IL-6 concentration ([1]; Donor 1, compound −13 log M): 1101.6 pg/mL and 838.7 pg/mL and 755.0 pg/mL
IL-6 concentration ([1]; Donor 1, compound −14 log M): 1106.3 pg/mL and 960.2 pg/mL and 880.6 pg/mL
IL-6 concentration ([1]; Donor 2, compound −5 log M): 516.5 pg/mL and 385.6 pg/mL and 394.9 pg/mL
IL-6 concentration ([1]; Donor 2, compound −6 log M): 521.2 pg/mL and 394.9 pg/mL and 381.0 pg/mL
IL-6 concentration ([1]; Donor 2, compound −7 log M): 554.0 pg/mL and 394.9 pg/mL and 404.3 pg/mL
IL-6 concentration ([1]; Donor 2, compound −8 log M): 848.1 pg/mL and 695.7 pg/mL and 681.5 pg/mL
IL-6 concentration ([1]; Donor 2, compound −9 log M): 1338.8 pg/mL and 1045.5 pg/mL and 1157.3 pg/mL
IL-6 concentration ([1]; Donor 2, compound −10 log M): 1309.2 pg/mL and 1108.6 pg/mL and 1215.9 pg/mL
IL-6 concentration ([1]; Donor 2, compound −11 log M): 1497.4 pg/mL and 1079.5 pg/mL and 2570.2 pg/mL
IL-6 concentration ([1]; Donor 2, compound −12 log M): 1427.8 pg/mL and 1215.9 pg/mL and 1123.2 pg/mL
IL-6 concentration ([1]; Donor 2, compound −13 log M): 2326.4 pg/mL and 1123.2 pg/mL and 1142.7 pg/mL
IL-6 concentration ([1]; Donor 2, compound −14 log M): 1552.3 pg/mL and 1393.1 pg/mL and 1255.1 pg/mL
IL-6 concentration ([1]; Donor 3, compound −5 log M): 172.0 pg/mL and 199.6 pg/mL and 166.5 pg/mL
IL-6 concentration ([1]; Donor 3, compound −6 log M): 170.2 pg/mL and 159.2 pg/mL and 179.4 pg/mL
IL-6 concentration ([1]; Donor 3, compound −7 log M): 221.8 pg/mL and 220.0 pg/mL and 214.4 pg/mL
IL-6 concentration ([1]; Donor 3, compound −8 log M): 621.9 pg/mL and 428.5 pg/mL and 386.6 pg/mL
IL-6 concentration ([1]; Donor 3, compound −9 log M): 645.5 pg/mL and 847.5 pg/mL and 637.6 pg/mL
IL-6 concentration ([1]; Donor 3, compound −10 log M): 1022.6 pg/mL and 1127.9 pg/mL and 983.0 pg/mL
IL-6 concentration ([1]; Donor 3, compound −11 log M): 774.8 pg/mL and 813.1 pg/mL and 796.9 pg/mL
IL-6 concentration ([1]; Donor 3, compound −12 log M): 904.7 pg/mL and 837.4 pg/mL and 859.7 pg/mL
IL-6 concentration ([1]; Donor 3, compound −13 log M): 956.1 pg/mL and 937.5 pg/mL and 1151.3 pg/mL
IL-6 concentration ([1]; Donor 3, compound −14 log M): 888.3 pg/mL and 831.3 pg/mL and 947.8 pg/mL
IC50 ([1]; Homo sapiens, primary FLS from three RA donors, 24 h): 5.6 ± 2.3 nM
Inhibition (efficacy) of TNF-α–induced IL-6 release ([1]; primary FLS from three RA donors, 24 h): 79.8 ± 7.6%
PR transactivation (human PR): no detectable transactivation
EC50 [2]: 284 ± 113 nM
EC50 ([2]; Homo sapiens, HepG2, 24 h): 283 nM
Efficacy, induction of TAT enzyme activity [2]: 92.4 ± 5.3%
Efficacy, induction of TAT enzyme activity ([2]; listed as prednisolone): 92.4% and 92%
